This is an account of results in ChEMBL document CHEMBL1201862, “PubChem BioAssay data set” (2004).

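A five-concentration, 48-hour dose response in 96-well plates underlies each endpoint, interpolated linearly between surrounding concentrations. Abbreviation: GI50, concentration required for 50% inhibition of growth.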 The source made the active and inactive calls. No stated cut-off is given here; in the data, active = GI50 up to about 1.1 µM and inactive = higher.

Test systems include HCC 2998; SF-539; SK-OV-3; MOLT-4; RXF 393; CAKI-1; NCI-H522; OVCAR-5; NCI-H23; HOP-92; NCI-H226; DLD-1; COLO 205; HT-29; LOX IMVI; BT-549; NCI/ADR-RES; MDA-MB-231; PC-3; Hs-578T.
Holding throughout (assay): NCI-60 cell line screen, 48 h

Take `ClC[Si]12OCCN(CCO1)CCO2`: the GI50 with HCC 2998, with SF-539, in the experiment with SK-OV-3, in the experiment with MOLT-4, in the experiment on RXF 393 and in the experiment on CAKI-1 was > 100 µM (inactive) throughout. The GI50 in the experiment on NCI-H522, with OVCAR-5, in the experiment on NCI-H23, with HOP-92, in the experiment with NCI-H226 and in the experiment with DLD-1 was > 100 µM (inactive) each time. In addition, the GI50 in the experiment with COLO 205 and in the experiment on HT-29 was > 100 µM (inactive) each time.
`Cc1ccc(C)c(NC2=NC(=O)C(CC(=O)Nc3ccc(Cl)cc3Cl)S2)c1` (stereo not given): the GI50 in the experiment with HCC 2998 is 46 µM (inactive); in the experiment with SF-539, 41.4 µM (inactive); in the experiment with SK-OV-3, > 100 µM (inactive); with MOLT-4, 54.8 µM (inactive); in the experiment on RXF 393 it was 31.2 µM (inactive); in the experiment with CAKI-1, > 100 µM (inactive). The GI50 was 24 µM (inactive) in the experiment with NCI-H522; > 100 µM (inactive) in the experiment with OVCAR-5; > 100 µM (inactive) in the experiment with LOX IMVI; 43.8 µM (inactive) with NCI-H23; 28.1 µM (inactive) in the experiment on NCI-H226; > 100 µM (inactive) with DLD-1. Also, the GI50 in the experiment with COLO 205 is 88.7 µM (inactive); in the experiment on HT-29 it was > 100 µM (inactive).
In the case of `Cn1c(=O)nc2n(-c3cc(Cl)ccc3Cl)c3ccccc3nc-2c1=O`, the GI50 was 2.68 µM (inactive) with HCC 2998; 5.92 µM (inactive) in the experiment with SF-539; 28 µM (inactive) in the experiment with SK-OV-3; 8.02 µM (inactive) in the experiment with MOLT-4; 14.8 µM (inactive) in the experiment on RXF 393; 7.19 µM (inactive) in the experiment with CAKI-1. Further, the GI50 in the experiment on NCI-H522 was 5.31 µM (inactive); in the experiment with OVCAR-5, 13 µM (inactive); in the experiment on NCI-H23 it was 0.299 µM (active); in the experiment on NCI-H226 it was 7.69 µM (inactive); in the experiment on DLD-1 it was 1.53 µM (inactive); in the experiment with COLO 205 it was 1.82 µM (inactive). In addition, the GI50 in the experiment on HT-29 is 1.54 µM (inactive).
For `Oc1ccc(I)c2cccnc12`, the GI50 in the experiment on SF-539 was 12.5 µM (inactive); in the experiment on SK-OV-3, 5.07 µM (inactive); in the experiment with MOLT-4, 2.96 µM (inactive); with RXF 393, 6.82 µM (inactive); in the experiment with NCI-H522, 1.94 µM (inactive); in the experiment on OVCAR-5 it was 52.5 µM (inactive). Further, the GI50 is 8.26 µM (inactive) with LOX IMVI; 8.38 µM (inactive) in the experiment with NCI-H23; 15.9 µM (inactive) with HOP-92; 15.6 µM (inactive) in the experiment with NCI-H226; 3.99 µM (inactive) in the experiment on DLD-1; 27.2 µM (inactive) in the experiment with COLO 205. Moreover, the GI50 with HT-29 was 38.2 µM (inactive).
In the case of `CCOCN1COCN(C)C1=O`, the GI50 in the experiment on HCC 2998, in the experiment with SF-539, in the experiment with SK-OV-3, in the experiment on CAKI-1, in the experiment on OVCAR-5 and in the experiment with LOX IMVI was > 100 µM (inactive) each time. The GI50 with NCI-H23, with HOP-92, in the experiment with NCI-H226, in the experiment with DLD-1, in the experiment on COLO 205 and in the experiment on HT-29 was > 100 µM (inactive) each time.
Consider `C[C@@]12CCCc3coc(c31)C(=O)c1cc3c(cc12)C(=O)C=CC3=O` [XESTOQUINONE], for which the GI50 in the experiment with HCC 2998 is 28.1 µM (inactive); in the experiment on SF-539, 15.7 µM (inactive); in the experiment on MOLT-4 it was 1.96 µM (inactive); in the experiment with RXF 393, 14.9 µM (inactive); with CAKI-1, 14.9 µM (inactive); with NCI-H522, 7.06 µM (inactive). Also, the GI50 in the experiment with OVCAR-5 is 22 µM (inactive); in the experiment on LOX IMVI it was 15.8 µM (inactive); in the experiment with NCI-H23, 16 µM (inactive); in the experiment with HOP-92, 4.52 µM (inactive); in the experiment on DLD-1, 2.54 µM (inactive); with HT-29 it was 22.3 µM (inactive).
On to `O=C(O/C(=C(/N=N/c1ccccc1)c1ccccc1)c1ccccc1)c1ccccc1`, for which the GI50 in the experiment with HCC 2998, in the experiment on SF-539, with SK-OV-3, in the experiment on MOLT-4, with RXF 393 and in the experiment with CAKI-1 was > 100 µM (inactive) in each case. Moreover, the GI50 in the experiment with NCI-H522 is > 100 µM (inactive); in the experiment with OVCAR-5 it was > 100 µM (inactive); in the experiment on NCI-H23, > 100 µM (inactive); in the experiment on HOP-92, 82 µM (inactive); in the experiment on NCI-H226, > 100 µM (inactive); in the experiment on DLD-1 it was 89.1 µM (inactive). For the same compound, the GI50 in the experiment on HT-29 was > 100 µM (inactive).
`CCOC(=O)c1nc2ccc(Cl)cc2c2c1Cc1ccccc1-2`: the GI50 in the experiment on HCC 2998 was > 100 µM (inactive); in the experiment with SF-539, > 100 µM (inactive); with MOLT-4, > 100 µM (inactive); in the experiment with RXF 393 it was 19.7 µM (inactive); with CAKI-1, > 100 µM (inactive); in the experiment with NCI-H522, 90.8 µM (inactive). The GI50 in the experiment on OVCAR-5, in the experiment with LOX IMVI, in the experiment with NCI-H23, with NCI-H226, in the experiment on DLD-1 and with COLO 205 was > 100 µM (inactive) throughout.
As for `CC1CCC[P+](Cc2ccccc2)(c2ccccc2)CC1` (stereo not given), the GI50 in the experiment with HCC 2998 is 29.1 µM (inactive); in the experiment on SF-539, 69.5 µM (inactive); in the experiment on SK-OV-3, > 100 µM (inactive); with MOLT-4, 78.5 µM (inactive); in the experiment with RXF 393 it was 23.1 µM (inactive); with OVCAR-5 it was > 100 µM (inactive). The GI50 in the experiment on LOX IMVI is 32 µM (inactive); in the experiment on NCI-H23, 27.2 µM (inactive); with DLD-1, > 100 µM (inactive); in the experiment with COLO 205 it was 40.4 µM (inactive).
For `Cc1cc(N(CCC#N)CCC#N)ccc1/C=C1N=C(/C=C\c2ccccc2)N(c2ccc(C(=O)O)cc2)C\1=O`, the GI50 with SF-539, in the experiment on SK-OV-3, with MOLT-4, in the experiment on CAKI-1, in the experiment with NCI-H522 and in the experiment with OVCAR-5 was > 100 µM (inactive) each time. Also, the GI50 in the experiment on LOX IMVI, in the experiment with NCI-H23, with HOP-92, in the experiment on NCI-H226, in the experiment on DLD-1 and in the experiment on COLO 205 was > 100 µM (inactive) in each case. For the same compound, in the experiment on HT-29, the GI50 is > 100 µM (inactive).
For `O=C(N/C(=C\c1cc(Cl)ccc1Cl)c1nc2ccccc2[nH]1)c1ccccc1`, the GI50 was 17.9 µM (inactive) in the experiment on HCC 2998; 39.3 µM (inactive) in the experiment on SF-539; > 100 µM (inactive) in the experiment with SK-OV-3; 14.9 µM (inactive) with MOLT-4; 21.3 µM (inactive) in the experiment on RXF 393; 30.8 µM (inactive) with CAKI-1. The GI50 with NCI-H522 was 29.1 µM (inactive); in the experiment with OVCAR-5, 52.2 µM (inactive); in the experiment on NCI-H23, 23.8 µM (inactive); in the experiment with HOP-92 it was 8.41 µM (inactive); in the experiment on DLD-1, 17.1 µM (inactive); with HT-29, 16.3 µM (inactive).
Turning to `CC1(C)CC[C@]2(C(=O)O)CC[C@]3(C)[C@H](C(=O)C=C4[C@@]5(C)C=C(C#N)C(=O)C(C)(C)[C@@H]5CC[C@]43C)[C@@H]2C1` [BARDOXOLONE], the GI50 was < 0.0412 µM (active) in the experiment with HCC 2998; 0.569 µM (active) in the experiment on SF-539; 0.875 µM (active) in the experiment on SK-OV-3; 0.259 µM (active) in the experiment on MOLT-4; 0.731 µM (active) in the experiment on BT-549; 0.0995 µM (active) with RXF 393. For the same compound, the GI50 with CAKI-1 was 0.687 µM (active); in the experiment with NCI-H522 it was 0.923 µM (active); with OVCAR-5 it was 0.488 µM (active); in the experiment on LOX IMVI, 0.0944 µM (active); with NCI-H23, 0.174 µM (active); in the experiment with HOP-92 it was 1.29 µM (inactive). The GI50 in the experiment on NCI/ADR-RES is 0.993 µM (active); in the experiment on NCI-H226, 0.416 µM (active); in the experiment on MDA-MB-231, 1.31 µM (inactive); in the experiment with COLO 205, 0.215 µM (active); in the experiment on HT-29 it was 0.495 µM (active); in the experiment with PC-3 it was 0.311 µM (active). Further, the GI50 in the experiment on Hs-578T was 0.671 µM (active).
As to `COC1OC(CO)C(O)C1N` (stereo not given), the GI50 in the experiment on SF-539, in the experiment on SK-OV-3, in the experiment on MOLT-4, with RXF 393, in the experiment with CAKI-1 and in the experiment on NCI-H522 was > 100 µM (inactive) in each case. In addition, the GI50 in the experiment on OVCAR-5, in the experiment with LOX IMVI, in the experiment with NCI-H23, in the experiment with HOP-92, in the experiment with NCI-H226 and in the experiment with DLD-1 was > 100 µM (inactive) each time. The GI50 in the experiment on COLO 205 and with HT-29 was > 100 µM (inactive) throughout.
Take `CCOC(=O)/C1=C(\C)N(c2ccc(C)cc2)C(=O)c2ccccc2C(=O)c2c(O)ccc(O)c21`: the GI50 in the experiment on HCC 2998 is 16.5 µM (inactive); in the experiment with SF-539 it was 26.5 µM (inactive); in the experiment with SK-OV-3, 35.9 µM (inactive); with MOLT-4 it was 14.5 µM (inactive); in the experiment with BT-549, 27.7 µM (inactive); in the experiment on RXF 393, 23.2 µM (inactive). The GI50 with CAKI-1 is 20 µM (inactive); with NCI-H522 it was 18.7 µM (inactive); with OVCAR-5, 30.2 µM (inactive); with LOX IMVI, 16.7 µM (inactive); in the experiment on NCI-H23 it was 24.7 µM (inactive); in the experiment on HOP-92, 22.7 µM (inactive). The GI50 in the experiment on NCI/ADR-RES was 14.9 µM (inactive); with NCI-H226 it was 42.4 µM (inactive); in the experiment with MDA-MB-231 it was 14.1 µM (inactive); with COLO 205 it was 20.1 µM (inactive); in the experiment on HT-29, 19.5 µM (inactive); in the experiment with PC-3 it was 24.7 µM (inactive). In the experiment on Hs-578T, the GI50 is 29.2 µM (inactive).
